Source: PubChem BioAssay AID248 (DTP/NCI, 2004)
“And” between values parts separate entries of the source, which are not always exact repeats. Identical values can stand only once. Inconclusive results and toxic doses are left out. Rule as the data show it: active = T/C of 150% or more; inactive = T/C below 125%.

Test system: L1210 leukemia ip in BDF1 mice, survival T/C
Test: NCI In Vivo Anticancer Drug Screen. Data for tumor model L1210 Leukemia (intraperitoneal) in B6D2F1 (BDF1) mice
Settings: endpoint: mean survival time, higher = longer survival
Procedure, shortened: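 Ratio derived from survival: compound-dosed mice over vehicle-dosed mice, all bearing a transplantable tumor.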

[1] = dose: 100.0 mg/kg/injection, schedule: Q01DX001 (ip), vehicle: saline
[2] = dose: 200.0 mg/kg/injection, schedule: Q01DX001 (ip), vehicle: saline
[3] = dose: 100.0 mg/kg/injection, schedule: Q01DX009 (ip), vehicle: saline with Tween-80
[4] = dose: 200.0 mg/kg/injection, schedule: Q01DX009 (ip), vehicle: saline with Tween-80
[5] = dose: 400.0 mg/kg/injection, schedule: Q01DX009 (ip), vehicle: saline with Tween-80
[6] = dose: 100.0 mg/kg/injection, schedule: Q01DX009 (ip), vehicle: other
[7] = dose: 200.0 mg/kg/injection, schedule: Q01DX009 (ip), vehicle: other
[8] = dose: 400.0 mg/kg/injection, schedule: Q01DX009 (ip), vehicle: other
[9] = dose: 100.0 mg/kg/injection, schedule: Q01DX001 (ip), vehicle: saline with Tween-80
[10] = dose: 100.0 mg/kg/injection, schedule: Q04DX002 (ip), vehicle: saline with Tween-80
[11] = dose: 200.0 mg/kg/injection, schedule: Q01DX001 (ip), vehicle: saline with Tween-80
[12] = dose: 200.0 mg/kg/injection, schedule: Q04DX002 (ip), vehicle: saline with Tween-80
[13] = dose: 400.0 mg/kg/injection, schedule: Q01DX001 (ip), vehicle: saline with Tween-80
[14] = dose: 400.0 mg/kg/injection, schedule: Q04DX002 (ip), vehicle: saline with Tween-80
[15] = dose: 400.0 mg/kg/injection, schedule: Q01DX001 (ip), vehicle: saline

Measured: T/C

CCCCCCCCC(=O)N(CC(C)C)CC(C)C
inactive: dose: 100.0 mg/kg/injection, schedule: Q01DX001 (ip), vehicle: carboxymethylcellulose (CMC) 93 % of control | dose: 100.0 mg/kg/injection, schedule: Q01DX009 (ip), vehicle: carboxymethylcellulose (CMC) 101 % of control | dose: 100.0 mg/kg/injection, schedule: Q04DX002 (ip), vehicle: carboxymethylcellulose (CMC) 94 % of control | dose: 100.0 mg/kg/injection, schedule: Q04DX003 (ip), vehicle: carboxymethylcellulose (CMC) 101 % of control | dose: 200.0 mg/kg/injection, schedule: Q01DX001 (ip), vehicle: carboxymethylcellulose (CMC) 91 % of control | dose: 200.0 mg/kg/injection, schedule: Q01DX009 (ip), vehicle: carboxymethylcellulose (CMC) 101 % of control and 106 % of control | dose: 200.0 mg/kg/injection, schedule: Q04DX002 (ip), vehicle: carboxymethylcellulose (CMC) 102 % of control | dose: 200.0 mg/kg/injection, schedule: Q04DX003 (ip), vehicle: carboxymethylcellulose (CMC) 101 % of control | dose: 400.0 mg/kg/injection, schedule: Q01DX001 (ip), vehicle: carboxymethylcellulose (CMC) 93 % of control | dose: 400.0 mg/kg/injection, schedule: Q04DX002 (ip), vehicle: carboxymethylcellulose (CMC) 97 % of control | dose: 400.0 mg/kg/injection, schedule: Q04DX003 (ip), vehicle: carboxymethylcellulose (CMC) 104 % of control

CCOc1ccc(-n2c(C)nc3ccccc3c2=O)cc1CNCCBr
inactive: dose: 50.0 mg/kg/injection, schedule: Q01DX001 (ip), vehicle: saline 103 % of control | [1] 111 % of control | [2] 111 % of control

Cc1cc(-c2nnc(-c3ccc(O)c(C)c3)nn2)ccc1O
inactive: [3] 94 % of control | [4] 94 % of control | [5] 91 % of control

Clc1ccc2nsnc2c1Cl
inactive: dose: 100.0 mg/kg/injection, schedule: Q04DX003 (ip), vehicle: Klucel (hydroxypropylcellulose) (HPC) 95 % of control | dose: 200.0 mg/kg/injection, schedule: Q04DX003 (ip), vehicle: Klucel (hydroxypropylcellulose) (HPC) 98 % of control | dose: 400.0 mg/kg/injection, schedule: Q04DX003 (ip), vehicle: Klucel (hydroxypropylcellulose) (HPC) 98 % of control

CC1(C)C(=O)C2(C(=O)O)CCC1C2 (stereo not drawn)
inactive: [3] 93 % of control | dose: 100.0 mg/kg/injection, schedule: Q04DX003 (ip), vehicle: saline with Tween-80 101 % of control | [4] 98 % of control | dose: 200.0 mg/kg/injection, schedule: Q04DX003 (ip), vehicle: saline with Tween-80 101 % of control | [5] 96 % of control | dose: 400.0 mg/kg/injection, schedule: Q04DX003 (ip), vehicle: saline with Tween-80 88 % of control

Cc1ccc(S(=O)(=O)N2CCC(Br)(Br)C(=O)c3ccccc32)cc1
inactive: dose: 100.0 mg/kg/injection, schedule: Q01DX009 (ip), vehicle: saline 97 % of control | dose: 200.0 mg/kg/injection, schedule: Q01DX009 (ip), vehicle: saline 100 % of control | dose: 400.0 mg/kg/injection, schedule: Q01DX009 (ip), vehicle: saline 102 % of control

CC(=O)N(CC(=O)O)Cc1ccccc1
inactive: [6] 100 % of control | dose: 100.0 mg/kg/injection, schedule: Q04DX003 (ip), vehicle: other 95 % of control | [7] 105 % of control | dose: 200.0 mg/kg/injection, schedule: Q04DX003 (ip), vehicle: other 101 % of control | [8] 105 % of control | dose: 400.0 mg/kg/injection, schedule: Q04DX003 (ip), vehicle: other 106 % of control

CCOC(=O)c1ccc(NC(=O)Oc2ccc3ccccc3c2)cc1
inactive: [9] 96 % of control | [3] 100 % of control and 90 % of control | [10] 99 % of control and 88 % of control | [11] 93 % of control and 86 % of control | [4] 92 % of control and 100 % of control | [12] 97 % of control and 91 % of control | [13] 93 % of control and 91 % of control | [5] 100 % of control and 90 % of control | [14] 92 % of control and 88 % of control

O=C(Cc1cccc2ccccc12)N/N=C/c1ccccc1Cl
inactive: dose: 100.0 mg/kg/injection, schedule: Q01DX009 (ip), vehicle: Klucel (hydroxypropylcellulose) (HPC) 89 % of control and 90 % of control | dose: 200.0 mg/kg/injection, schedule: Q01DX009 (ip), vehicle: Klucel (hydroxypropylcellulose) (HPC) 92 % of control | dose: 400.0 mg/kg/injection, schedule: Q01DX009 (ip), vehicle: Klucel (hydroxypropylcellulose) (HPC) 86 % of control and 90 % of control

CC1CN1C1=C(F)C(=O)C(N2CC2C)=C(F)C1=O (stereo not drawn)
inactive: dose: 0.19 mg/kg/injection, schedule: Q01DX009 (ip), vehicle: Klucel (hydroxypropylcellulose) (HPC) 105 % of control | dose: 0.39 mg/kg/injection, schedule: Q01DX009 (ip), vehicle: Klucel (hydroxypropylcellulose) (HPC) 104 % of control | dose: 0.78 mg/kg/injection, schedule: Q01DX009 (ip), vehicle: Klucel (hydroxypropylcellulose) (HPC) 102 % of control | dose: 0.78 mg/kg/injection, schedule: Q04DX003 (ip), vehicle: Klucel (hydroxypropylcellulose) (HPC) 103 % of control | dose: 1.56 mg/kg/injection, schedule: Q01DX009 (ip), vehicle: Klucel (hydroxypropylcellulose) (HPC) 100 % of control | dose: 1.56 mg/kg/injection, schedule: Q04DX003 (ip), vehicle: Klucel (hydroxypropylcellulose) (HPC) 105 % of control | dose: 3.12 mg/kg/injection, schedule: Q01DX009 (ip), vehicle: Klucel (hydroxypropylcellulose) (HPC) 100 % of control | dose: 3.12 mg/kg/injection, schedule: Q04DX003 (ip), vehicle: Klucel (hydroxypropylcellulose) (HPC) 101 % of control | dose: 4.6 mg/kg/injection, schedule: Q01DX009 (ip), vehicle: Klucel (hydroxypropylcellulose) (HPC) 103 % of control

Cc1cccc(NC(=O)OCCN(CCOC(=O)Nc2cccc(C)c2)c2cccc(C)c2)c1
inactive: [1] 88 % of control | [2] 90 % of control | [15] 94 % of control

CC(C)CCCC(C)C1CCC2C3CC=C4CC(O[N+](=O)[O-])CCC4(C)C3CCC12C (stereo not drawn)
inactive: [10] 102 % of control | [12] 112 % of control | [14] 102 % of control

Cc1ccc(NC(=O)OCCN(CCOC(=O)Nc2ccc(C)cc2)c2cccc(C)c2)cc1
inactive: [1] 94 % of control | [2] 90 % of control | [15] 94 % of control

CC(C)(Br)C(=O)c1ccco1
inactive: [3] 95 % of control

Cn1cc(/C=C\[N+](=O)[O-])c2ccccc21
inactive: [1] 98 % of control | [2] 98 % of control | [15] 98 % of control

CCCCCCCCP(=O)(CCCCCC)CCCCCC
inactive: [9] 97 % of control | [11] 101 % of control | [13] 111 % of control

CC(C)c1cc2c(cc1O)C1(C)CCCC(C)(C(=O)O)C1CC2 (stereo not drawn)
inactive: dose: 50.0 mg/kg/injection, schedule: Q04DX003 (ip), vehicle: acetone 87 % of control | dose: 100.0 mg/kg/injection, schedule: Q01DX001 (ip), vehicle: acetone 97 % of control | dose: 100.0 mg/kg/injection, schedule: Q04DX003 (ip), vehicle: acetone 90 % of control | dose: 200.0 mg/kg/injection, schedule: Q01DX001 (ip), vehicle: acetone 92 % of control | dose: 200.0 mg/kg/injection, schedule: Q04DX003 (ip), vehicle: acetone 89 % of control

CCCCCCCc1nc2nn[nH]c(=O)c2[nH]1
inactive: [9] 94 % of control | [11] 100 % of control | [13] 90 % of control

COC(=O)C1(C)CSCCC1=O (stereo not drawn)
inactive: [6] 94 % of control | [7] 94 % of control | [8] 99 % of control
